Measured values reported in PubChem BioAssay (NCI).
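Step 1: Grow cells in 96-well plates. Step 2: Expose to compound for 48 hours at 5 concentrations. Step 3: Interpolate endpoints linearly; if unreached, use highest concentration. TGI is the concentration that stops growth completely.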

Legend:
Assay in all cases: inhibition of tumour cell growth, NCI panel, 48 h
[1] = tested on: OVCAR-8 ovarian
[2] = tested on: U251 CNS
[3] = tested on: EKVX NSCLC
[4] = tested on: K-562 leukemia
[5] = tested on: RXF 393 renal
[6] = tested on: M19-MEL melanoma
[7] = tested on: SK-MEL-2 melanoma
[8] = tested on: CCRF-CEM leukemia
[9] = tested on: SNB-19 CNS
[10] = tested on: MALME-3M melanoma
[11] = tested on: SF-539 CNS
[12] = tested on: LOX IMVI melanoma
[13] = tested on: HCT-116 colon
[14] = tested on: NCI-H23 lung
[15] = tested on: SK-OV-3 ovarian
[16] = tested on: UO-31 renal
[17] = tested on: NCI-H460 lung
[18] = tested on: HOP-18 NSCLC
[19] = tested on: NCI-H226 lung
[20] = tested on: SK-MEL-5 melanoma
[21] = tested on: SNB-78 CNS
[22] = tested on: SW-620 colon
[23] = tested on: SR leukemia
[24] = tested on: SN12C renal
[25] = tested on: RPMI-8226 leukemia
[26] = tested on: HL-60(TB) leukemia
[27] = tested on: SF-268 CNS
[28] = tested on: KM12 colon
[29] = tested on: HT29 colon
[30] = tested on: 786-0 renal
[31] = tested on: A549 NSCLC
[32] = tested on: COLO 205 colon
[33] = tested on: DMS 273 small cell lung
[34] = tested on: ACHN renal
[35] = tested on: SK-MEL-28 melanoma
[36] = tested on: RXF-631 renal
[37] = tested on: M14 melanoma
[38] = tested on: OVCAR-3 ovarian
[39] = tested on: OVCAR-4 ovarian
[40] = tested on: KM20L2 colon
[41] = tested on: UACC-62 melanoma
[42] = tested on: TK-10 renal
[43] = tested on: LXFL 529 NSCLC
[44] = tested on: SF-295 CNS
[45] = tested on: CAKI-1 renal
[46] = tested on: UACC-257 melanoma
[47] = tested on: XF 498 CNS
[48] = tested on: IGROV1 ovarian
[49] = tested on: A498 renal
[50] = tested on: HOP-62 NSCLC
[51] = tested on: OVCAR-5 ovarian
[52] = tested on: HCC-2998 colon
[53] = tested on: HCT-15 colon
[54] = tested on: SNB-75 CNS
[55] = tested on: DLD-1 colon
[56] = tested on: NCI-H522 lung
[57] = tested on: MOLT-4 leukemia
[58] = tested on: HOP-92 NSCLC
[59] = tested on: DMS 114 small cell lung

COC(=O)C(C(=O)C(=O)Nc1nc(=S)[nH][nH]1)c1csc(N)n1 (centres undefined)
TGI [1]: > 100 µM
TGI [2]: > 100 µM
TGI [3]: > 100 µM
TGI [4]: > 100 µM
TGI [5]: > 100 µM
TGI [6]: > 100 µM
TGI [7]: > 100 µM
TGI [8]: > 100 µM
TGI [9]: > 100 µM
TGI [10]: > 100 µM
TGI [11]: > 100 µM
TGI [12]: > 100 µM
TGI [13]: > 100 µM
TGI [14]: > 100 µM
TGI [15]: > 100 µM
TGI [16]: > 100 µM
TGI [17]: > 100 µM
TGI [18]: > 100 µM
TGI [19]: > 100 µM
TGI [20]: > 100 µM
TGI [21]: > 100 µM
TGI [22]: > 100 µM
TGI [23]: > 100 µM
TGI [24]: > 100 µM
TGI [25]: > 100 µM
TGI [26]: > 100 µM
TGI [27]: > 100 µM
TGI [28]: > 100 µM
TGI [29]: > 100 µM
TGI [30]: > 100 µM
TGI [31]: > 100 µM
TGI [32]: > 100 µM
TGI [33]: > 100 µM
TGI [34]: > 100 µM
TGI [35]: > 100 µM
TGI [36]: > 100 µM
TGI [37]: > 100 µM
TGI [38]: > 100 µM
TGI [39]: > 100 µM
TGI [40]: > 100 µM
TGI [41]: > 100 µM
TGI [42]: > 100 µM
TGI [43]: > 100 µM
TGI [44]: > 100 µM
TGI [45]: > 100 µM
TGI [46]: > 100 µM
TGI [47]: > 100 µM
TGI [48]: > 100 µM
TGI [49]: > 100 µM
TGI [50]: > 100 µM
TGI [51]: > 100 µM
TGI [52]: > 100 µM
TGI [53]: > 100 µM
TGI [54]: > 100 µM
TGI [55]: > 100 µM
TGI [56]: > 100 µM
TGI [57]: > 100 µM

N#CC1=C(Cl)NC(Cl)=C(C#N)C1c1ccc(Cl)cc1
TGI [1]: 29.7 µM
TGI [2]: 29.8 µM
TGI [3]: 39.4 µM
TGI [4]: 28.5 µM
TGI [5]: 32.9 µM
TGI [7]: 27.5 µM
TGI [8]: 65.8 µM
TGI [9]: 31 µM
TGI [10]: 38.7 µM
TGI [11]: 33.2 µM
TGI [12]: 29.6 µM
TGI [13]: 34.4 µM
TGI [58]: 30.5 µM
TGI [14]: 32.8 µM
TGI [15]: 31.7 µM
TGI [16]: 30.8 µM
TGI [17]: 31.5 µM
TGI [18]: 33.6 µM
TGI [19]: 44.7 µM
TGI [20]: 30.7 µM
TGI [59]: 28.8 µM
TGI [21]: 72.5 µM
TGI [22]: 26.3 µM
TGI [23]: 44.1 µM
TGI [24]: 30.9 µM
TGI [25]: 37.5 µM
TGI [26]: 45.4 µM
TGI [27]: 33 µM
TGI [28]: 33 µM
TGI [29]: 30.1 µM
TGI [30]: 29.2 µM
TGI [31]: 37.1 µM
TGI [32]: 30.3 µM
TGI [33]: 31 µM
TGI [34]: 34.2 µM
TGI [35]: 41.4 µM
TGI [36]: 29.5 µM
TGI [37]: 30.5 µM
TGI [38]: 27 µM
TGI [40]: 39.3 µM
TGI [41]: 30.5 µM
TGI [42]: 32.5 µM
TGI [43]: 29.9 µM
TGI [44]: 53.9 µM
TGI [45]: 43.9 µM
TGI [46]: 34.7 µM
TGI [47]: 27.4 µM
TGI [48]: 32.9 µM
TGI [49]: 81.3 µM
TGI [50]: 33.1 µM
TGI [51]: > 100 µM
TGI [52]: 33.2 µM
TGI [53]: 29 µM
TGI [54]: 28.3 µM
TGI [55]: 32 µM
TGI [56]: 25.8 µM
TGI [57]: 39.3 µM
